# Laboratory results as given in patent publication US20190145953A1, “METHODS AND MATERIALS FOR ASSESSING INTESTINAL PERMEABILITY” (Mayo Foundation for Medical Education and Research, priority 2016, published 2019).
# How the values were obtained:
# [1] = Cumulative urinary excretion of oral sugars by HPLC-MS in IBS-C patients and healthy volunteers (Example 3); assay type: in vivo, human
# Description: The following was performed to determine duodenal and colonic barrier function and endotoxin activity in females with IBS-C in comparison to healthy. 16 IBS-C (Rome III) patients and 13 matched healthy volunteers (females) were given oral lactulose, ^12C mannitol and ^13C mannitol measured cumulatively over 0-2 and 8-24 hours by HPLC-MS. 10 biopsies were obtained from duodenum and sigmoid colon. Mucosal transepithelial resistance (TER), FITC dextran (4 KDa), and E. coli K12 BioParticle flux were measured in Ussing chambers. Endotoxin activity (blood) was measured towards gram-negative bacterial lipopolysaccharide. Unpaired 2-sided t-tests were used for comparisons.
# [2] = assay type: in vivo, human
# Description: 24 healthy volunteers (12 females) aged 18-65 years are recruited. Those using NSAIDs, oral corticosteroids, artificial sweeteners (Splenda, aspartame), lactulose, mannitol, or medications affecting gastrointestinal transit are excluded. All 24 participants undergo a baseline urinary excretion assay using the three saccharides (100 mg ^13C mannitol, 100 mg ^12C mannitol, and 1000 mg lactulose) dissolved in 250 mL of water. 500 mL of water is administered 30 minutes after the sugars are ingested to aid in the production of urine. Participants are allowed regular amounts of water throughout the study, and no standardized meals are provided. Cumulative urine samples for 0-2 hours are collected while they are in the CRU and stored. Two containers are provided for the cumulative 2-8 hour collection and cumulative 8-24 hour collection. Participants are instructed to return these collections the following day. The collections are subjected to HPLC-MS for quantitative estimation of the sugars.
# These participants receive 75 mg of Indomethacin orally 8 hour and 30 minutes prior to a second urinary excretion assay using the same three sugars. Finally, these participants undergo a third assay after 4 weeks from the end of the second assay in the absence of any indomethacin or other NSAIDs or perturbations. All three assays are done using the same protocol and urinary collections. Additionally, these participants undergo an upper endoscopy with duodenal biopsies at baseline and after Indomethacin challenge. The ^13C mannitol-assay based urinary excretion findings are correlated with histology findings on light microscopy and with ex vivo mucosal barrier function/permeability. For this, tw freshly obtained biopsies are mounted in 4 mL Ussing chambers (Physiological Instruments, California, USA) exposing a 0.03 cm^2 area. Transepithelial resistance is measured using Ag/AgCl electrodes with agar-salt bridges and current delivered with platinum electrodes. Macromolecular flux across biopsies are studied using FITC Dextran (4 kDa, Molecular Probes, New York). At 30-minute intervals for a total of 3 hours, basal compartment fluorescence are analyzed.
# At each visit, baseline excretion of ^12C mannitol was higher than the ^13C mannitol (p<0.0001) with 5 of 73 subjects excreting >10 mg of ^12C mannitol prior to test dose administration. At visit 1, one subject excreted 62 mg of ^12C mannitol, which dropped to 28 mg after test dose administration.
# This recovered completely at visit 3. Both low and high dose Indomethacin had similar effects. […] It is possible that intestinal microflora can influence the L:M based excretion assay for intestinal permeability. To test this, seven patients underwent a fourth testing following bowel prep with MoviPrep. […] This could reflect increased transit after the bowel prep resulting in less contact time between the sugar and the absorptive surface area.
# [3] = human, in vivo
# Description: The following was performed to determine if administration of ^13C-mannitol can be used to measure intestinal permeability. Ten healthy volunteers (five females) received oral sugars after 8 hours of fasting. Those volunteers using tobacco, NSAIDs, oral corticosteroids, sweeteners, lactulose, mannitol, or medications affecting gastrointestinal transit were excluded. Three saccharides (100 mg of ^13C-mannitol, 100 mg of ^12C-mannitol (regular mannitol), and 1000 mg of ^12C-lactulose (regular lactulose)) dissolved in 250 mL of water were administered. 0-2 hour cumulative mannitol and 8-24 hour cumulative lactulose or mannitol excretion were measured to assess small intestinal and colonic permeability, respectively. After baseline urine collection, collections were pooled for 0-2 hours, 2-8 hours, and 8-24 hours following administration of test sugars. High performance liquid chromatography-tandem mass spectrometry was performed to determine urinary sugar concentrations. Cumulative excretions and lactulose:mannitol (L:M) ratios (ratio of fractional excretion) were calculated. Mann-Whitney test was used for statistical analysis.
# colonic bacteria = conditions: in vivo, po; cited from earlier work
# [4] = human, in vivo; remark: listed apart in the source
# Description: The following was performed to evaluate safety and effectiveness of oral nutritional therapy with serum-derived bovine immunoglobulin (SBI) on symptoms, epithelial barrier function, and mucosal expression of pivotal genes in small intestinal mucosa (SI) in patients with IBS-D. This open-label pilot study evaluated effects of SBI, 5.0 g twice daily for 8 weeks, in 15 patients with IBS-D (Rome III) on symptoms, tryptophan metabolism (kynurenine to tryptophan ratio), intestinal permeability [measured by two sugars (^13C-mannitol and lactulose) urine excretion: 0-2 hours (SI) and 2-8 hours (SI and colon)] and distal duodenal mucosal mRNA expression of pivotal genes including tight junction, secretory mechanisms, tissue repair proteins and chemokines. Bowel function and abdominal pain (worst and average) were evaluated using a daily diary including the Bristol Stool Form Scale, and bile acid homeostasis by fasting serum FGF-19 and 7αC4. Statistical analysis was based on ITT principles using paired tests (comparing baseline with results of therapy over 8 weeks or in final 2 weeks) and included imputation for missing data for one patient.
# [5] = Indomethacin challenge, p=0.004
molecule,measurement,setting,value
OC[C@H]1O[C@@H](O[C@@H]2[C@@H](CO)OC(O)(CO)[C@H]2O)[C@H](O)[C@@H](O)[C@H]1O (mixture of isomers) [lactulose],"0-2 hr cumulative urinary excretion (mg), mean (SEM)",[1]; Healthy Volunteers (n=11),0.99(0.12) mg
same,"8-24 hr cumulative urinary excretion (mg), mean (SEM)",[1]; Healthy Volunteers (n=11),0.72(0.31) mg
same,"0-2 hr cumulative urinary excretion (mg), mean (SEM)",[1]; IBS-C (n=16),1.12(0.19) mg
same,"8-24 hr cumulative urinary excretion (mg), mean (SEM)",[1]; IBS-C (n=16),1.06(0.55) mg
COc1ccc2c(c1)c(CC(=O)O)c(C)n2C(=O)c1ccc(Cl)cc1 [Indomethacin],0-2h lactulose excretion compared to baseline (visit 1),"[2]; Indomethacin challenge, p<0.0001",increased
same,2-8h lactulose excretion compared to baseline (visit 1),[2]; [5],increased
same,8-24h lactulose excretion compared to baseline (visit 1),[2]; [5],increased
same,12C or 13C mannitol excretion with Indomethacin treatment,[2]; either excretion time-point,did not increase
OC[C@@H](O)[C@@H](O)[C@H](O)[C@H](O)CO [^12C-mannitol],Baseline excretion,[2]; in vivo,higher
same,Change of excretion in the 0-2 hr interval compared with baseline,[2]; in vivo,four subjects exhibited no significant increase
same,"Cumulative (0-24h) mean recovery, comparison 12C vs 13C mannitol",[2]; in vivo,significantly higher
same,Excretion of one subject after test dose administration,[2]; in vivo,28 mg
same,Excretion of one subject at baseline,[2]; in vivo,62 mg
same,Subjects excreting >10 mg prior to test dose administration,[2]; in vivo,5 of 73
same,"L:M ratio: Mean (SEM), 0-2 hours",[3],0.006
same,"L:M ratio: Mean (SEM), 2-8 hours",[3],0.009
same,"L:M ratio: Mean (SEM), 8-24 hours",[3],0.002
same,Participants with disproportionately high baseline excretion,[3],Three of the ten
OC[C@@H](O)[C@@H](O)[C@H](O)[C@H](O)CO [mannitol],Fraction of orally ingested mannitol metabolized by colonic bacteria,colonic bacteria,about 75%
^13C-mannitol,Baseline excretion,[2]; in vivo,nearly undetectable
same,Change of excretion in the 0-2 hr interval compared with baseline,[2]; in vivo,increased in all cases
same,"L:M ratio: Mean (SEM), 0-2 hours",[3],0.007
same,"L:M ratio: Mean (SEM), 2-8 hours",[3],0.01
same,"L:M ratio: Mean (SEM), 8-24 hours",[3],0.01
same,Mean lower baseline contamination vs 12C mannitol,[3],20 fold
same,Participants with disproportionately high baseline excretion,[3],none
same,Excretion at baseline in IBS-D patients vs 8 healthy controls,[4],did not differ
